Experiments:
Assay in all cases: relative viability (nuclei count vs DMSO), 5 days (fraction); higher = more cells survive
[1] = compound: CC1=C(C(=O)N2C=CSC2=N1)CCN3CCC(=C(C4=CC=CC=C4)C5=CC=C(C=C5)F)CC3 + O=C(CCCCCCC(=O)Nc1ccccc1)NO [Vorinostat] (partner 1 µM)
Method in brief: (§1)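 One day after seeding in 1536-well plates, lung cancer cell lines were dosed by pin tool. Dosing was either single-drug or a fixed anchor-drug dose plus five library-drug doses (not always all listed) in √10 steps. After 5 days, nuclei were stained in one fix-and-stain step and counted on 4× images, and relative viability is the nuclei count of treated wells over that of vehicle wells, given as the median of duplicate plates.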

[2] = compound: CC1=C(C(=O)N2C=CSC2=N1)CCN3CCC(=C(C4=CC=CC=C4)C5=CC=C(C=C5)F)CC3 + CS(=O)(=O)N1CCN(Cc2cc3nc(-c4cccc5[nH]ncc45)nc(N4CCOCC4)c3s2)CC1 [Pictilisib] (partner 1 µM)
Method in brief: as §1

[3] = compound: CC1=C(C(=O)N2C=CSC2=N1)CCN3CCC(=C(C4=CC=CC=C4)C5=CC=C(C=C5)F)CC3 + C[C@@H](Oc1cc(-c2cnn(C3CCNCC3)c2)cnc1N)c1c(Cl)ccc(F)c1Cl [Crizotinib] (partner 1 µM)
Method in brief: as §1

[4] = compound: CC1=C(C(=O)N2C=CSC2=N1)CCN3CCC(=C(C4=CC=CC=C4)C5=CC=C(C=C5)F)CC3 + Cc1nc(Nc2ncc(C(=O)Nc3c(C)cccc3Cl)s2)cc(N2CCN(CCO)CC2)n1 [Dasatinib] (partner 0.075 µM)
Method in brief: as §1

| Cell Line | relative viability ([1]; first compound 0.08 µM) | relative viability ([1]; first compound 0.253 µM) | relative viability ([1]; first compound 0.8 µM) | relative viability ([1]; first compound 2.53 µM) | relative viability ([1]; first compound 8 µM) | relative viability ([2]; first compound 0.08 µM) | relative viability ([2]; first compound 0.253 µM) | relative viability ([2]; first compound 0.8 µM) | relative viability ([2]; first compound 2.53 µM) | relative viability ([2]; first compound 8 µM) | relative viability ([3]; first compound 0.253 µM) | relative viability ([3]; first compound 0.8 µM) | relative viability ([3]; first compound 2.53 µM) | relative viability ([3]; first compound 8 µM) | relative viability ([4]; first compound 0.08 µM) | relative viability ([4]; first compound 0.253 µM) | relative viability ([4]; first compound 0.8 µM) | relative viability ([4]; first compound 2.53 µM) | relative viability ([4]; first compound 8 µM) | relative viability ([3]; first compound 0.08 µM) |
| --- | --- | --- | --- | --- | --- | --- | --- | --- | --- | --- | --- | --- | --- | --- | --- | --- | --- | --- | --- | --- |
| HCC-366 | 0.344 | 0.405 | 0.332 | 0.403 | 0.256 | 0.128 | 0.152 | 0.194 | 0.129 | 0.121 | 0.539 | 0.587 | 0.448 | 0.616 | 0.697 | 0.631 | 0.711 | 0.545 | 0.247 | – |
| HCC-827 | 0.831 | 0.655 | 0.797 | 0.953 | 0.688 | 0.829 | 1.07 | 1.13 | 0.924 | 0.645 | 0.924 | 0.911 | 0.98 | 0.946 | 0.212 | 0.288 | 0.38 | 0.3 | 0.265 | 0.898 |
| HOP-62 | 0.522 | 0.628 | 0.552 | 0.468 | 0.323 | 0.891 | 0.72 | 0.827 | 0.745 | 0.611 | 0.939 | 0.744 | 0.701 | 0.442 | 0.595 | 0.482 | 0.621 | 0.575 | 0.548 | 1.01 |
| IA-LM | 0.524 | 0.895 | 1.01 | 0.756 | 0.417 | – | 0.354 | 0.211 | 0.345 | 0.234 | 0.713 | 1.09 | 0.944 | 0.502 | – | – | – | – | – | – |
| LC-2-ad | 0.661 | 0.517 | 0.771 | 0.748 | 0.53 | 0.418 | 0.369 | 0.513 | 0.646 | 0.427 | 0.342 | 0.415 | 0.522 | 0.475 | 0.766 | 0.538 | 0.422 | 0.644 | 0.497 | 0.46 |
| LCLC-97TM1 | 0.521 | 0.831 | 0.754 | 0.734 | 0.415 | 0.208 | 0.297 | 0.217 | 0.182 | 0.167 | 0.367 | 0.307 | 0.263 | 0.343 | 0.857 | 0.773 | 0.949 | 0.92 | 0.658 | 0.453 |
| LCLC-103H | 0.891 | 0.784 | 0.76 | 0.75 | 0.709 | 0.884 | 0.636 | 0.449 | 0.618 | 0.566 | 1.06 | 1.04 | 0.947 | 0.836 | 0.498 | 0.409 | 0.439 | 0.424 | 0.339 | 1.05 |
| LK-2 | 0.266 | 0.233 | 0.333 | 0.319 | 0.199 | 0.611 | 0.66 | 0.605 | 0.451 | 0.539 | 0.234 | 0.202 | 0.293 | 0.29 | 0.273 | 0.249 | 0.354 | 0.282 | 0.268 | 0.291 |
| LOU-NH91 | 0.973 | 0.832 | 0.856 | 0.948 | 0.776 | 0.561 | 0.503 | 0.545 | 0.55 | 0.527 | 0.747 | 0.715 | 0.772 | 0.726 | 0.527 | 0.586 | 0.557 | 0.594 | 0.435 | 0.701 |
| LU99A | 0.433 | 0.418 | 0.381 | 0.525 | 0.207 | 0.377 | 0.316 | 0.342 | 0.389 | 0.311 | 0.636 | 0.558 | 0.625 | 0.444 | 0.507 | 0.544 | 0.57 | 0.551 | 0.422 | 0.602 |
| LXF-289 | 0.527 | 0.813 | 0.75 | 0.738 | 0.613 | 0.824 | 0.953 | 0.804 | 0.674 | 0.724 | 0.93 | 0.891 | 0.797 | 0.773 | 0.276 | 0.18 | 0.214 | 0.209 | 0.189 | 0.911 |
| NCI-H522 | 0.69 | 0.86 | 1.03 | 1.08 | 0.736 | – | – | – | – | – | – | – | – | – | 0.901 | 0.549 | 0.998 | 0.855 | 0.733 | – |
| NCI-H1299 | – | – | – | – | – | 1 | 0.906 | 0.754 | 1.05 | 0.575 | 0.943 | 0.976 | 0.965 | 0.69 | – | – | – | – | – | 0.971 |
| NCI-H1395 | 0.714 | 0.786 | 0.525 | 0.691 | 0.646 | 0.772 | 0.641 | 0.531 | 0.572 | 0.629 | – | – | – | – | 0.417 | 0.406 | 0.416 | 0.394 | 0.438 | – |
| NCI-H1563 | – | – | – | – | – | 0.542 | 0.684 | 0.66 | 0.633 | 0.637 | 0.842 | 0.793 | 0.817 | 0.87 | 0.502 | 0.531 | 0.485 | 0.5 | 0.5 | 0.775 |
| NCI-H1648 | 0.26 | 0.36 | 0.603 | 0.4 | 0.338 | – | – | – | – | – | – | – | – | – | – | – | – | – | – | – |
| NCI-H1703 | – | – | – | – | – | 0.298 | 0.248 | 0.266 | 0.295 | 0.248 | 0.55 | 0.777 | 0.786 | 0.625 | – | – | – | – | – | 0.723 |
| NCI-H1792 | – | – | – | – | – | 0.241 | 0.257 | 0.251 | 0.232 | 0.308 | 0.671 | 1.02 | 1.11 | 0.549 | 0.72 | 0.574 | 0.817 | 0.837 | 0.352 | 1.01 |
| NCI-H1793 | 0.599 | 0.988 | 0.577 | 0.891 | 0.535 | 0.368 | 0.283 | 0.249 | 0.341 | 0.23 | – | – | – | – | 0.363 | 0.328 | 0.415 | 0.467 | 0.233 | – |
| NCI-H2342 | 0.63 | 0.882 | 0.778 | 0.795 | 0.6 | – | – | – | – | – | – | – | – | – | 0.255 | 0.304 | 0.291 | 0.306 | 0.247 | – |
